Test results: US20260374794A1, “COMPOUNDS TARGETING MUTANT OF P53” (JACOBIO PHARMACEUTICALS CO., LTD., priority 2022, published 2026)
Read-outs that look alike come from different tables or passages of the source. One block for each molecule: values may come before it.

How the values were obtained:
NUGC-3 (P53 Y220C) = experiment: Cell viability assay (CellTiter-Glo); assay type: cell-based; conditions: NUGC-3 cells, 6 days, 37 °C
Experimental: Cells were collected and counted. A desired number of cells was seeded into 96-well microplate and cultured in 37 °C cell incubator overnight. Compounds dissolved in cell culture medium were added into cell plate and cultured for 6 days. After balancing CellTiter-Glo reagent and cells at room temperature for 30 min, equal volume of CellTiter-Glo reagents was added to assay plate and shaken for 2 min for cell lysis. The cells were balanced at room temperature for 10 minutes and Luminescence signal was read using Envision. The percent of cell viability for compounds treated wells were normalized between High control and low control. Wells containing cell culture medium and same percentage DMSO served as Low control. Wells containing cells and same percentage DMSO served as High control. Cell viability (%)=(Luminescence readoutCompound treated−Luminescence readoutLow control)/(Luminescence readoutHigh control−Luminescence readoutLow control)*100%. Then the data were analyzed either by fitting a 4-parameter logistic model or by Excel to calculate IC50 values. And the IC50 was the concentration at […] Cell viability on the curve.

p53(Y220C)_NUGC-3 = p53(Y220C)_NUGC-3 (Homo sapiens, UniProt P04637, Y220C); experiment: Reporter gene assay (NUGC-3_P53_Luc cells); assay type: cell-based
Experimental: NUGC-3_P53_Luc single clonal cell line was established using pGL4.38[luc2P/p53 RE/Hygro] Vector (E365A, promega). NUGC-3_P53_Luc single clonal cells were cultured in 37 °C cell incubator before use. NUGC-3_P53_Luc cells were collected and washed twice with PBS to remove phenol red and then resuspended in medium to a proper concentration. Tested compound dilutions were transferred into 384 well assay plates (PerkinElmer). A desired number of cells was seeded into the assay plate and cultured for 6 hours at 37 °C cell incubator. Britelite plus Luciferase Assay Reagent were added into each well and the luminescence value was recorded on Envision. The percent of activity value of compounds treated wells was normalized between high control and low control. Wells containing cells and Ref-la (10 μM) served as high control, and wells containing cells and same percentage of DMSO served as low control. Activity value (%)=(Luminescence readoutCompound treated−Luminescence readoutLow control)/(Luminescence readoutHigh control−Luminescence readoutLow control)*100%. Then the data were analyzed either by fitting a 4-parameter logistic model or by Excel to calculate EC50 values and the EC50 was the concentration at 50% Activity on the curve.

p53(Y220C) = target: T1, p53(Y220C) (Homo sapiens, UniProt P04637, Y220C); experiment: In vitro DNA binding assay (HTRF), His-p53 Y220C (94-294) with biotinylated p53 consensus DNA; assay type: biochemical
T1 construct: His-p53 Y220C (94-294) protein
Experimental: After His-p53 Y220C (94-294) protein was placed with a compound in the present of MAb Anti His-Tb cryptate (Cisbio, Cat. NO. 61HI2TLA) in a 384 well microplate (Greiner) for 15 min at 25 °C, the assay plate was transferred into 27 °C incubator and incubated for 60 min. Biotinalyted p53 consensus DNA (ID: p53-SEQUENCE 2 —F: 5′(biotin)-[…] 3′ —R: 5′ […] 3′) was added into the assay plate in the present of Streptaidin-d2 (Cisbio, Cat. NO. 610SADLF) cryptate (Final concentration: 20 mM HEPES pH=7.4, 75 mM KCl, 1 mM MgCl2, 0.1% (w/v) BSA, 1 mM DTT, 2.5 nM His-P53 Y220C (94-294) protein, 0.33 nM MAb Anti His-Tb cryptate, 2.5 nM Streptaidin-d2 cryptate, 10 nM Biotinalyted DNA) and incubated for another 60 min. Wells containing 2 μM reference compound Ref-1a served as high control, and wells containing same percentage of DMSO served as low control. Homogeneous time-resolved fluorescence (HTRF) signals were read on Tecan Spark multimode microplate reader. HTRF ratios for each individual well were calculated by equation: HTRF ratio=(Signal F665/Signal F620)*1000. The percent of activation of compounds treated wells were normalized between high control and low control (% Activation=(HTRF ratiocompound treated−HTRF ratiolow control)/(HTRF ratiohigh control−HTRF ratiolow control)*100%). Then the data were analyzed either by fitting a 4-parameter logistic model or by Excel to calculate EC50 values. And the EC50 was the concentration at 50% Activation on the curve.

[1] = 6 hours, 37 °C, luciferase, normalized to Ref-1a 10 μM, EC50 = concentration at 50% Activity, read-out: p53(Y220C)_NUGC-3 EC50
[2] = HTRF, 27 °C, His-p53 Y220C (94-294) 2.5 nM, biotinylated DNA 10 nM, normalized to 2 μM Ref-1a, EC50 = concentration at 50% Activation, read-out: p53(Y220C) EC50

SMILES: COc1cc(P(C)(C)=O)ccc1NCC#Cc1sc2c(N[C@@H]3CN4CCC3CC4)cccc2c1CC(F)(F)F [Example 48, (S)-(3-methoxy-4-((3-(7-(quinuclidin-3-ylamino)-3-(2,2,2-trifluoroethyl)benzo[b]thiophen-2-yl)prop-2-yn-1-yl)amino)phenyl)dimethylphosphine oxide]
- IC50 (NUGC-3 (P53 Y220C); Homo sapiens, 144 h): 1600 nM
- EC50 (p53(Y220C)_NUGC-3; read-out: p53(Y220C)_NUGC-3 EC50, 6 hours, 37 °C, luciferase, normalized to Ref-1a 10 μM, EC50 = concentration at 50% Activity): 439 nM
- EC50 (p53(Y220C)): 65 nM

SMILES: COc1cc([S@](=N)(=O)C2COC2)ccc1NCC#Cc1sc2c(N[C@@H]3CCN(C)C[C@@H]3F)cccc2c1CC(F)(F)F [Example 49, (R)-(4-((3-(7-(((3S,4R)-3-fluoro-1-methylpiperidin-4-yl)amino)-3-(2,2,2-trifluoroethyl)benzo[b]thiophen-2-yl)prop-2-yn-1-yl)amino)-3-methoxyphenyl)(imino)(oxetan-3-yl)-16-sulfanone]
- IC50 (NUGC-3 (P53 Y220C)): 750 nM
- EC50 (p53(Y220C)_NUGC-3; [1]): 64 nM
- EC50 (p53(Y220C); [2]): 51 nM

SMILES: COc1cc([S@@](=N)(=O)C2COC2)ccc1NCC#Cc1sc2c(N[C@@H]3CCN(C)C[C@@H]3F)cccc2c1CC(F)(F)F [Example 50, (S)-(4-((3-(7-(((3S,4R)-3-fluoro-1-methylpiperidin-4-yl)amino)-3-(2,2,2-trifluoroethyl)benzo[b]thiophen-2-yl)prop-2-yn-1-yl)amino)-3-methoxyphenyl)(imino)(oxetan-3-yl)-16-sulfanone]
- IC50 (NUGC-3 (P53 Y220C); Homo sapiens, 144 h): 1080 nM
- EC50 (p53(Y220C)_NUGC-3; [1]): 76 nM
- EC50 (p53(Y220C); [2]): 25 nM

SMILES: COc1cc([S@](=N)(=O)C2CC2)ccc1NCC#Cc1sc2c(N[C@@H]3CCN(C)C[C@@H]3F)cccc2c1CC(F)(F)F [Example 53, (R)-cyclopropyl(4-((3-(7-(((3S,4R)-3-fluoro-1-methylpiperidin-4-yl)amino)-3-(2,2,2-trifluoroethyl)benzo[b]thiophen-2-yl)prop-2-yn-1-yl)amino)-3-methoxyphenyl)(imino)-16-sulfanone]
- IC50 (NUGC-3 (P53 Y220C)): 680 nM
- EC50 (p53(Y220C)_NUGC-3; [1]): 128 nM
- EC50 (p53(Y220C); [2]): 39 nM

SMILES: COc1cc([S@@](=N)(=O)C2CC2)ccc1NCC#Cc1sc2c(N[C@@H]3CCN(C)C[C@@H]3F)cccc2c1CC(F)(F)F [Example 54, (S)-cyclopropyl(4-((3-(7-(((3S,4R)-3-fluoro-1-methylpiperidin-4-yl)amino)-3-(2,2,2-trifluoroethyl)benzo[b]thiophen-2-yl)prop-2-yn-1-yl)amino)-3-methoxyphenyl)(imino)-16-sulfanone]
- IC50 (NUGC-3 (P53 Y220C)): 1050 nM
- EC50 (p53(Y220C)_NUGC-3; [1]): 143 nM
- EC50 (p53(Y220C); [2]): 58 nM

SMILES: COc1cc([S@@](C)(=N)=O)ccc1NCC#Cc1sc2c(N[C@H]3CCN(C)C[C@@H]3F)cccc2c1[C@@H](O)C(F)(F)F [Example 58, (S)-(4-((3-(7-(((3S,4S)-3-fluoro-1-methylpiperidin-4-yl)amino)-3-((R)-2,2,2-trifluoro-1-hydroxyethyl)benzo[b]thiophen-2-yl)prop-2-yn-1-yl)amino)-3-methoxyphenyl)(imino)(methyl)-16-sulfanone]
- IC50 (NUGC-3 (P53 Y220C); Homo sapiens, 144 h): 400 nM
- EC50 (p53(Y220C)_NUGC-3; [1]): 44 nM
- EC50 (p53(Y220C); [2]): 35 nM

SMILES: COc1cc([S@@](C)(=N)=O)ccc1NCC#Cc1sc2c(N[C@@H]3CCN(C)C[C@H]3F)cccc2c1[C@@H](O)C(F)(F)F [Example 59, (S)-(4-((3-(7-(((3R,4R)-3-fluoro-1-methylpiperidin-4-yl)amino)-3-((R)-2,2,2-trifluoro-1-hydroxyethyl)benzo[b]thiophen-2-yl)prop-2-yn-1-yl)amino)-3-methoxyphenyl)(imino)(methyl)-16-sulfanone]
- IC50 (NUGC-3 (P53 Y220C); Homo sapiens, 144 h): 2060 nM
- EC50 (p53(Y220C)_NUGC-3; [1]): 266 nM
- EC50 (p53(Y220C); [2]): 109 nM

SMILES: COc1cc([S@@](C)(=N)=O)ccc1NCC#Cc1sc2c(N[C@@H]3CCN(C)C[C@@H]3F)cccc2c1[C@@H](O)C(F)(F)F [Example 60, (S)-(4-((3-(7-(((3S,4R)-3-fluoro-1-methylpiperidin-4-yl)amino)-3-((R)-2,2,2-trifluoro-1-hydroxyethyl)benzo[b]thiophen-2-yl)prop-2-yn-1-yl)amino)-3-methoxyphenyl)(imino)(methyl)-16-sulfanone]
- IC50 (NUGC-3 (P53 Y220C)): 1800 nM
- EC50 (p53(Y220C)_NUGC-3; [1]): 281 nM
- EC50 (p53(Y220C); [2]): 74 nM

Now from value to molecule, other results behind:

- EC50 (p53(Y220C)_NUGC-3; [1]): 160 nM
- EC50 (p53(Y220C); [2]): 56 nM
SMILES: CCOc1c(P(C)(C)=O)ccc(NCC#Cc2sc3c(N[C@@H]4CCN(C)C[C@@H]4F)cccc3c2CC(F)(F)F)c1OC [Example 43, (2-ethoxy-4-((3-(7-(((3S,4R)-3-fluoro-1-methylpiperidin-4-yl)amino)-3-(2,2,2-trifluoroethyl)benzo[b]thiophen-2-yl)prop-2-yn-1-yl)amino)-3-methoxyphenyl)dimethylphosphine oxide]
- IC50 (NUGC-3 (P53 Y220C); Homo sapiens, 144 h): 590 nM

- EC50 (p53(Y220C)_NUGC-3; [1]): 84 nM
- EC50 (p53(Y220C); [2]): 46 nM
SMILES: COc1nc([S@](C)(=N)=O)ccc1NCC#Cc1sc2c(N[C@@H]3CCN(C)C[C@@H]3F)cccc2c1CC(F)(F)F [Example 44, (R)-(5-((3-(7-(((3S,4R)-3-fluoro-1-methylpiperidin-4-yl)amino)-3-(2,2,2-trifluoroethyl)benzo[b]thiophen-2-yl)prop-2-yn-1-yl)amino)-6-methoxypyridin-2-yl)(imino)(methyl)-16-sulfanone]
- IC50 (NUGC-3 (P53 Y220C); Homo sapiens, 144 h): 1350 nM

- EC50 (p53(Y220C)_NUGC-3; [1]): 95 nM
- EC50 (p53(Y220C); [2]): 65 nM
SMILES: COc1nc([S@@](C)(=N)=O)ccc1NCC#Cc1sc2c(N[C@@H]3CCN(C)C[C@@H]3F)cccc2c1CC(F)(F)F [Example 45, (S)-(5-((3-(7-(((3S,4R)-3-fluoro-1-methylpiperidin-4-yl)amino)-3-(2,2,2-trifluoroethyl)benzo[b]thiophen-2-yl)prop-2-yn-1-yl)amino)-6-methoxypyridin-2-yl)(imino)(methyl)-16-sulfanone]
- IC50 (NUGC-3 (P53 Y220C); Homo sapiens, 144 h): 1330 nM

- EC50 (p53(Y220C)_NUGC-3; [1]): 196 nM
- EC50 (p53(Y220C); [2]): 31 nM
SMILES: CN1CC[C@@H](Nc2cccc3c(CC(F)(F)F)c(C#CCNc4ccc(P(C)(C)=O)c5c4C(=O)NC5)sc23)[C@@H](F)C1 [Example 55, 4-(dimethylphosphoryl)-7-((3-(7-(((3S,4R)-3-fluoro-1-methylpiperidin-4-yl)amino)-3-(2,2,2-trifluoroethyl)benzo[b]thiophen-2-yl)prop-2-yn-1-yl)amino)isoindolin-1-one]
- IC50 (NUGC-3 (P53 Y220C); Homo sapiens, 144 h): 1290 nM

- EC50 (p53(Y220C)_NUGC-3; [1]): 61 nM
- EC50 (p53(Y220C); [2]): 45 nM
SMILES: [2H]C([2H])([2H])Oc1nc(P(C)(C)=O)ccc1NCC#Cc1sc2c(N[C@@H]3CCN(C)C[C@@H]3F)cccc2c1CC(F)(F)F [Example 56, (5-((3-(7-(((3S,4R)-3-fluoro-1-methylpiperidin-4-yl)amino)-3-(2,2,2-trifluoroethyl)benzo[b]thiophen-2-yl)prop-2-yn-1-yl)amino)-6-(methoxy-d3)pyridin-2-yl)dimethylphosphine oxide]
- IC50 (NUGC-3 (P53 Y220C); Homo sapiens, 144 h): 430 nM

- EC50 (p53(Y220C)_NUGC-3; [1]): 164 nM
- EC50 (p53(Y220C); [2]): 37 nM
SMILES: COc1c(NCC#Cc2sc3c(N[C@@H]4CCN(C)C[C@@H]4F)cccc3c2CC(F)(F)F)ccc(P(C)(C)=O)c1OC [Example 57, (4-((3-(7-(((3S,4R)-3-fluoro-1-methylpiperidin-4-yl)amino)-3-(2,2,2-trifluoroethyl)benzo[b]thiophen-2-yl)prop-2-yn-1-yl)amino)-2,3-dimethoxyphenyl)dimethylphosphine oxide]
- IC50 (NUGC-3 (P53 Y220C); Homo sapiens, 144 h): 790 nM
